According to US9234005B2 (priority 2011, dated 2016):
Read-outs that look alike come from different tables or passages of the source. No end group written: not given here.

Key:
PTPN4-PDZ [1] = biological target: T1, PTPN4-PDZ (Homo sapiens, UniProt P29074, S499G); test: biochemical; format: binding; set-up: PTPN4-PDZ (residues G499-N604, G499 being a non-native residue due to the TEV cleavage site); GST (N, cleaved yes); made in house; host or cells: Escherichia coli BL21 (DE3) star
T1 sequence (P29074 499-604 S499G): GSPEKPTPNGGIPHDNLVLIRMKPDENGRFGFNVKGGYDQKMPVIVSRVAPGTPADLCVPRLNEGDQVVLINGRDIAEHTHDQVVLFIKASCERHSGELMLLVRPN

U373MG astrocytoma cells = format: cell-based, human
PTPN4-PDZ [2] = biological target: T1, PTPN4-PDZ; test: biochemical
[3] = tested on: neuroblastoma cell line SK-N-SH; conditions: cited from earlier work
[4] = Kd for PTPN4-PDZ (dissociation constant, text)

| Substance | cell death (% of dead cells among peptide loaded cells) (U373MG astrocytoma cells) | Kd (PTPN4-PDZ [1]; Kd, affinity for PTPN4-PDZ) [µM] | Kd (PTPN4-PDZ [2]) [µM] | other results |
| --- | --- | --- | --- | --- |
| LNLGNDPDRGTSI [GluD2-13, LNLGNDPDRGTSI] |  |  |  | Kd (PTPN4-PDZ [1]; [4]): 128 µM |
| SNRRVYKKMPSIESDV-OH [GluN2A-16, SNRRVYKKMPSIESDV] | 29% |  |  | increase of cell death compared to Cyto13-att (U373MG astrocytoma cells): two-fold increase; Kd (PTPN4-PDZ [1]): 42 µM; fold increase in affinity for PTPN4-PDZ compared to Cyto13-att (Cyto-att) (PTPN4-PDZ [1]): four-fold increase |
| SWARVSKETPL [SEQ ID NO: 4, SWARVSKETPL] |  | 1.58 |  |  |
| SWEDRETEV [SEQ ID NO: 7, SWEDRETEV] |  |  | 3.88 |  |
| SWEERETEF [SEQ ID NO: 6, SWEERETEF] |  |  | 2.52 |  |
| SWEERETEV [SEQ ID NO: 3, SWEERETEV] |  |  | 1.35 |  |
| SWELYKSEGDARL [DARL-13, SWELYKSEGDARL] |  | 1280 |  |  |
| SWERRETEV [SEQ ID NO: 5, SWERRETEV] |  |  | 2 |  |
| SWESHKSGG [Cyto9-Δ] | 7% |  |  | induction of cell death, in words [3]: do not; interaction with PTPN4-PDZ, in words (PTPN4-PDZ [1]): does not interact with PTPN4-PDZ |
| SWESHKSGGETRL [Cyto13-att, SWESHKSGGETRL] | more than 14% | 157 |  | induction of cell death, in words [3]: induces cell death |
| SWESHKSGGQTRL [Cyto13-vir, SWESHKSGGQTRL] | 8% | 568 |  | induction of cell death, in words [3]: do not; fold difference in Kd, Cyto13-vir versus Cyto13-att (PTPN4-PDZ [1]): 4 fold; ΔΔG0=RT ln(Kd(Cyto13-vir)/Kd(Cyto13-att)) (PTPN4-PDZ [1]): 0.76 kcal·mol^−1; Kd (PTPN4-PDZ [1]; [4]): 560 µM |
| SWESYRSGGEIRL [EIRL-13, SWESYRSGGEIRL] |  | 1170 |  | interaction with PTPN4-PDZ, in words (PTPN4-PDZ [1]): low affinity |
| shepherdin |  |  |  | glioblastoma death, in words (U373MG astrocytoma cells): in a range similar to those obtained with Cyto13-att |
